Reference: ChEMBL document CHEMBL1146463, “A pair of new C-21 steroidal glycoside epimers from the roots of Cynanchum paniculatum” (2004)
In brackets after ≈: the same amount, converted by molar mass.

System: Staphylococcus aureus
Assay: Antibacterial activity against methicillin-resistant Staphylococcus aureus after 20 hrs
Format: functional

Question: With `CO[C@@H]1C[C@H](O[C@H]2CC[C@@]3(C)C(=CC[C@H]4C(=O)O[C@@H]5CO[C@]6(C)O[C@H](O)/C(=C/C[C@@H]43)[C@H]56)C2)O[C@H](C)[C@H]1O` [PANICULATUMOSIDE A] as the compound, how does the MIC read?
Answer: 180 µg/mL (≈ 345 µM)

Question: `CC(=O)OCC1=C(C(=O)O)N2C(=O)[C@@H](NC(=O)CSc3ccncc3)[C@H]2SC1` [CEPHAPIRIN] was tested. Which MIC did it give?
Answer: 10.5 µg/mL (≈ 24.8 µM)

Question: `CO[C@@H]1C[C@H](O[C@H]2CC[C@@]3(C)C(=CC[C@H]4C(=O)O[C@H]5CO[C@]6(C)O[C@@H](O)/C(=C/C[C@@H]43)[C@H]56)C2)O[C@H](C)[C@H]1O` [PANICULATUMOSIDE B] was tested. Which MIC did it give?
Answer: 149 µg/mL (≈ 285 µM)
